# Reference: PMC12454493, “Insight on novel sulfamoylphenyl pyrazole derivatives as anticancer carbonic anhydrase inhibitors” (Molecular Diversity, 2024)
# Assays:
# HL-60(TB) = experiment: NCI-60 one-dose SRB screen (Leukemia); assay type: cell-based; details: Homo sapiens, single dose 10 µM, 48 h, read-out: Growth inhibition percent (GI %)
# SR = experiment: NCI-60 one-dose SRB screen (Leukemia); assay type: cell-based; details: Homo sapiens, single dose 10 µM, 48 h, read-out: Growth inhibition percent (GI %)
# K-562 = experiment: NCI-60 one-dose SRB screen (Leukemia); assay type: cell-based; details: Homo sapiens, K562, single dose 10 µM, 48 h, read-out: Growth inhibition percent (GI %)
# MOLT-4 = experiment: NCI-60 one-dose SRB screen (Leukemia); assay type: cell-based; details: Homo sapiens, single dose 10 µM, 48 h, read-out: Growth inhibition percent (GI %)
# CCRF-CEM = experiment: NCI-60 one-dose SRB screen (Leukemia); assay type: cell-based; details: Homo sapiens, single dose 10 µM, 48 h, read-out: Growth inhibition percent (GI %)
# RPMI-8226 = experiment: NCI-60 one-dose SRB screen (Leukemia); assay type: cell-based; details: Homo sapiens, single dose 10 µM, 48 h, read-out: Growth inhibition percent (GI %)
# SF-268 = experiment: NCI-60 one-dose SRB screen (CNS Cancer); assay type: cell-based; details: Homo sapiens, single dose 10 µM, 48 h, read-out: Growth inhibition percent (GI %)
# SF-539 = experiment: NCI-60 one-dose SRB screen (CNS Cancer); assay type: cell-based; details: Homo sapiens, single dose 10 µM, 48 h, read-out: Growth inhibition percent (GI %)
# SNB-19 = experiment: NCI-60 one-dose SRB screen (CNS Cancer); assay type: cell-based; details: Homo sapiens, single dose 10 µM, 48 h, read-out: Growth inhibition percent (GI %)
# U251 = experiment: NCI-60 one-dose SRB screen (CNS Cancer); assay type: cell-based; details: Homo sapiens, U-251, single dose 10 µM, 48 h, read-out: Growth inhibition percent (GI %)
# SF-295 = experiment: NCI-60 one-dose SRB screen (CNS Cancer); assay type: cell-based; details: Homo sapiens, single dose 10 µM, 48 h, read-out: Growth inhibition percent (GI %)
# SNB-75 = experiment: NCI-60 one-dose SRB screen (CNS Cancer); assay type: cell-based; details: Homo sapiens, single dose 10 µM, 48 h, read-out: Growth inhibition percent (GI %)
# HOP-92 = experiment: NCI-60 one-dose SRB screen (Non-Small Cell Lung Cancer); assay type: cell-based; details: Homo sapiens, single dose 10 µM, 48 h, read-out: Growth inhibition percent (GI %)
# HOP-62 = experiment: as above; assay type: cell-based; details: Homo sapiens, single dose 10 µM, 48 h, read-out: Growth inhibition percent (GI %)
# NCI-H522 = experiment: as above; assay type: cell-based; details: Homo sapiens, single dose 10 µM, 48 h, read-out: Growth inhibition percent (GI %)
# NCI-H23 = experiment: as above; assay type: cell-based; details: Homo sapiens, single dose 10 µM, 48 h, read-out: Growth inhibition percent (GI %)
# A549/ATCC = experiment: as above; assay type: cell-based; details: Homo sapiens, single dose 10 µM, 48 h, read-out: Growth inhibition percent (GI %)
# NCI-H226 = experiment: as above; assay type: cell-based; details: Homo sapiens, single dose 10 µM, 48 h, read-out: Growth inhibition percent (GI %)
# NCI-H460 = experiment: as above; assay type: cell-based; details: Homo sapiens, single dose 10 µM, 48 h, read-out: Growth inhibition percent (GI %)
# NCI-H322M = experiment: as above; assay type: cell-based; details: Homo sapiens, single dose 10 µM, 48 h, read-out: Growth inhibition percent (GI %)
# EKVX = experiment: as above; assay type: cell-based; details: Homo sapiens, single dose 10 µM, 48 h, read-out: Growth inhibition percent (GI %)
# HT29 = experiment: NCI-60 one-dose SRB screen (Colon Cancer); assay type: cell-based; details: Homo sapiens, HT-29, single dose 10 µM, 48 h, read-out: Growth inhibition percent (GI %)
# SW-620 = experiment: NCI-60 one-dose SRB screen (Colon Cancer); assay type: cell-based; details: Homo sapiens, single dose 10 µM, 48 h, read-out: Growth inhibition percent (GI %)
# HCT-15 = experiment: NCI-60 one-dose SRB screen (Colon Cancer); assay type: cell-based; details: Homo sapiens, single dose 10 µM, 48 h, read-out: Growth inhibition percent (GI %)
# HCC-2998 = experiment: NCI-60 one-dose SRB screen (Colon Cancer); assay type: cell-based; details: Homo sapiens, single dose 10 µM, 48 h, read-out: Growth inhibition percent (GI %)
# KM12 = experiment: NCI-60 one-dose SRB screen (Colon Cancer); assay type: cell-based; details: Homo sapiens, single dose 10 µM, 48 h, read-out: Growth inhibition percent (GI %)
# COLO 205 = experiment: NCI-60 one-dose SRB screen (Colon Cancer); assay type: cell-based; details: Homo sapiens, single dose 10 µM, 48 h, read-out: Growth inhibition percent (GI %)
# HCT-116 = experiment: NCI-60 one-dose SRB screen (Colon Cancer); assay type: cell-based; details: Homo sapiens, single dose 10 µM, 48 h, read-out: Growth inhibition percent (GI %)
# SK-MEL-5 = experiment: NCI-60 one-dose SRB screen (Melanoma); assay type: cell-based; details: Homo sapiens, single dose 10 µM, 48 h, read-out: Growth inhibition percent (GI %)
# UACC-257 = experiment: NCI-60 one-dose SRB screen (Melanoma); assay type: cell-based; details: Homo sapiens, single dose 10 µM, 48 h, read-out: Growth inhibition percent (GI %)
# MDA-MB-435 = experiment: NCI-60 one-dose SRB screen (Melanoma); assay type: cell-based; details: Homo sapiens, single dose 10 µM, 48 h, read-out: Growth inhibition percent (GI %)
# UACC-62 = experiment: NCI-60 one-dose SRB screen (Melanoma); assay type: cell-based; details: Homo sapiens, single dose 10 µM, 48 h, read-out: Growth inhibition percent (GI %)
# SK-MEL-2 = experiment: NCI-60 one-dose SRB screen (Melanoma); assay type: cell-based; details: Homo sapiens, single dose 10 µM, 48 h, read-out: Growth inhibition percent (GI %)
# M14 = experiment: NCI-60 one-dose SRB screen (Melanoma); assay type: cell-based; details: Homo sapiens, single dose 10 µM, 48 h, read-out: Growth inhibition percent (GI %)
# SK-MEL-28 = experiment: NCI-60 one-dose SRB screen (Melanoma); assay type: cell-based; details: Homo sapiens, single dose 10 µM, 48 h, read-out: Growth inhibition percent (GI %)
# MALME-3M = experiment: NCI-60 one-dose SRB screen (Melanoma); assay type: cell-based; details: Homo sapiens, single dose 10 µM, 48 h, read-out: Growth inhibition percent (GI %)
# hCA XII = hCA XII (Homo sapiens, UniProt O43570); experiment: CA inhibitory activity, spectrophotometric p-NPA assay; assay type: biochemical; details: p-NPA substrate, pH 7.5, 25 °C, triplicate; read-out: IC50 (µM) ± SD hCA XII
# UO-31 = experiment: NCI-60 one-dose SRB screen (Renal Cancer); assay type: cell-based; details: Homo sapiens, single dose 10 µM, 48 h, read-out: Growth inhibition percent (GI %)
# SN12C = experiment: NCI-60 one-dose SRB screen (Renal Cancer); assay type: cell-based; details: Homo sapiens, single dose 10 µM, 48 h, read-out: Growth inhibition percent (GI %)
# TK-10 = experiment: NCI-60 one-dose SRB screen (Renal Cancer); assay type: cell-based; details: Homo sapiens, single dose 10 µM, 48 h, read-out: Growth inhibition percent (GI %)
# 786-0 = experiment: NCI-60 one-dose SRB screen (Renal Cancer); assay type: cell-based; details: Homo sapiens, single dose 10 µM, 48 h, read-out: Growth inhibition percent (GI %)
# ACHN = experiment: NCI-60 one-dose SRB screen (Renal Cancer); assay type: cell-based; details: Homo sapiens, single dose 10 µM, 48 h, read-out: Growth inhibition percent (GI %)
# RXF 393 = experiment: NCI-60 one-dose SRB screen (Renal Cancer); assay type: cell-based; details: Homo sapiens, single dose 10 µM, 48 h, read-out: Growth inhibition percent (GI %)
# CAKI-1 = experiment: NCI-60 one-dose SRB screen (Renal Cancer); assay type: cell-based; details: Homo sapiens, single dose 10 µM, 48 h, read-out: Growth inhibition percent (GI %)
# A498 = experiment: NCI-60 one-dose SRB screen (Renal Cancer); assay type: cell-based; details: Homo sapiens, single dose 10 µM, 48 h, read-out: Growth inhibition percent (GI %)
# hCA XII, sequence (O43570 25-354): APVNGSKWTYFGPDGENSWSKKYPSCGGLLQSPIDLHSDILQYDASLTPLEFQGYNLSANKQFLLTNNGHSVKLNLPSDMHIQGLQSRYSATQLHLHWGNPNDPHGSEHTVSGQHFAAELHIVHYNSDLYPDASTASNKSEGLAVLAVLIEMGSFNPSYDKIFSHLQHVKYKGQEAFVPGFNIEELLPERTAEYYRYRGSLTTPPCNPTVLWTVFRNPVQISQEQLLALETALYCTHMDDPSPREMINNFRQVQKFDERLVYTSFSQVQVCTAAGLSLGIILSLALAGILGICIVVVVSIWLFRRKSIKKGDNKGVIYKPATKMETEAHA
structure (smiles),measurement,setting,value
"CS(=O)(=O)c1ccc(-c2nn(-c3ccc(S(N)(=O)=O)cc3)cc2C(=O)NNC(N)=S)cc1 [Compound 9e, 2-[3-(4-(Methylsulfonyl)phenyl)-1-(4-sulfamoylphenyl)-1H-pyrazole-4-carbonyl] hydrazine-1-carbothioamide]",inhibition at 10 µM,HL-60(TB),< 5%
same,inhibition at 10 µM,SR,< 5%
same,inhibition at 10 µM,K-562,< 5%
same,inhibition at 10 µM,MOLT-4,< 5%
same,inhibition at 10 µM,CCRF-CEM,< 5%
same,inhibition at 10 µM,RPMI-8226,< 5%
same,inhibition at 10 µM,SF-268,< 5%
same,inhibition at 10 µM,SF-539,< 5%
same,inhibition at 10 µM,SNB-19,< 5%
same,inhibition at 10 µM,U251,< 5%
same,inhibition at 10 µM,SF-295,< 5%
same,inhibition at 10 µM,SNB-75,15.9%
same,inhibition at 10 µM,HOP-92,< 5%
same,inhibition at 10 µM,HOP-62,< 5%
same,inhibition at 10 µM,NCI-H522,12.3%
same,inhibition at 10 µM,NCI-H23,< 5%
same,inhibition at 10 µM,A549/ATCC,< 5%
same,inhibition at 10 µM,NCI-H226,6.39%
same,inhibition at 10 µM,NCI-H460,< 5%
same,inhibition at 10 µM,NCI-H322M,< 5%
same,inhibition at 10 µM,EKVX,< 5%
same,melting point,,261 to 262 °C
same,inhibition at 10 µM,HT29,< 5%
same,inhibition at 10 µM,SW-620,< 5%
same,inhibition at 10 µM,HCT-15,< 5%
same,inhibition at 10 µM,HCC-2998,< 5%
same,inhibition at 10 µM,KM12,< 5%
same,inhibition at 10 µM,COLO 205,< 5%
same,inhibition at 10 µM,HCT-116,< 5%
same,inhibition at 10 µM,SK-MEL-5,< 5%
same,inhibition at 10 µM,UACC-257,7%
same,inhibition at 10 µM,MDA-MB-435,< 5%
same,inhibition at 10 µM,UACC-62,7.82%
same,inhibition at 10 µM,SK-MEL-2,< 5%
same,inhibition at 10 µM,M14,< 5%
same,inhibition at 10 µM,SK-MEL-28,< 5%
same,inhibition at 10 µM,MALME-3M,< 5%
same,IC50,hCA XII,0.929 ± 0.035 µM
same,inhibition at 10 µM,UO-31,5.48%
same,inhibition at 10 µM,SN12C,< 5%
same,inhibition at 10 µM,TK-10,< 5%
same,inhibition at 10 µM,786-0,< 5%
same,inhibition at 10 µM,ACHN,< 5%
same,inhibition at 10 µM,RXF 393,< 5%
same,inhibition at 10 µM,CAKI-1,9.93%
same,inhibition at 10 µM,A498,< 5%
